# Data taken from patent publication US20070166547A1, “Use of a layer consisting of hydrophobic linear, or two-dimensional polycyclic aromatics as a barrier layer or an encapsulation and electric components constructed with a layer of this type and comprising organic polymers” (priority 2003, published 2007).
# Assays:
# [1] = tested on: synthase of nitrogen oxide (NOC); assay: Morphine abstinence model: activity of synthase of nitrogen oxide (radiometric, [3H]L-citrulline); format: in vivo, rats Wistar; conditions: for Activity of NOC, Hypothalamus, Control + Compound / Activity of NOC, Mesencephalon, Control + Compound: compound alone 20.0 mg/kg intramuscularly; for Activity of NOC, Hypothalamus, Control + Morphine + compound / Activity of NOC, Mesencephalon, Control + Morphine + compound: morphinized rats then compound 20.0 mg/kg intramuscularly
# thymus = assay: Morphine abstinence model: thymus condition; format: in vivo, rats; conditions: compound alone
# [2] = Polarographic study of electrochemical reduction (electrochemical activity); format: physicochemical; conditions: for number of electrons participating in the reduction: calculated with the Geirovsky-Ilkovich equation; for i, mkA (polarographic wave current) / −E1/2, V (half-wave potential vs SCE): 37° C., forward trace, average for the group; for i, mkA (polarographic wave current): 9·10^−4 M; for half-wave potential more positive on reverse stroke than on forward stroke: reverse stroke vs forward stroke
# Method in brief: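 DC polarography at 37 °C on a dropping mercury electrode (0.5 s drop) against SCE with a Pt auxiliary electrode. Compounds at 9·10^−4 M in N2-purged 2.0% NaCl at pH 7.0–7.6, scanned 0 to −0.5 V at 10.0 mV/s. E1/2 and ilim were determined graphically; electron number was derived by Heyrovsky–Ilkovič analysis.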
# [3] = tested on: embyronic fibroblasts of mouse NIH-3T3; assay: Endocellular pHi of fibroblasts by microspectrofluorimetry (FDA, BCECF-AM); format: cell-based; conditions: for rise of pHi: fibroblasts in an attached spread state; for increase of pHi: 20 minutes
# Procedure: The effect of the compounds according to the invention on the endocellular pH, embyronic fibroblasts of mouse NIH-3T3 supplied by the All-Russian Collection of Cellular Cultures of the Institute of Cytology of the Russian Academy of Sciences St. Petersburg was investigated. The cells were grown in the DMEM (Sigma) medium containing 2.2 g/l of sodium bicarbonate with addition of 80.0 mkg/ml of gentamicin and 10.0% embryonal veal serum at a temperature of 37° C. in an atmosphere containing 5.0% of carbon dioxide. For these experiments use was also made of a medium buffer with 5.0 mM of HEPES and 15.0 mM of sodium bicarbonate without serum or with addition of 5.0% serum. The cells were calculated with the help of a hemocytometer. A share of the dead cells was determined by colouring trypan blue.
# The measurements of the endocellular pHi were carried out with the help of colorants FDA (Sigma) and BCECF-AM (Calbiochem) on a microspectrofluorimeter by a standard technique (Koshevoy Yu. V., Akatov V. S., Grobova M. E. Microspectrofluorimeter for measuring endocellular pH (micro pH)”. Devices and equipment for studies in the field of physical-and-chemical biology and biotechnology. Pushchino, 1990. P. 8-14).
# The cells at a temperature of 37° C. were colored within 5 minutes with 5.0 mkM PDA that before the colouring was prepared from a 10.0 mM solution in acetone by dilution for 30 minutes in a phosphatic buffer to 0.1 mM or 2.0 mkM 1.0 mM solution BCECF-AM in DMSO.
# The two-wave method of determining pHi was used based on the ratio intensities of fluorescence of the cells on two wavelengths (Akatov V. S. et all), “Endocellular pH and substrate dependence of proliferation of fibroblasts of Chinese hamster, Cytology, 1991, 33 (7), p. 86-94). The fluorescence was excited by light at λ=490 nm, the emission was recorded simultaneously with two photomultipliers on wavelengths λ=535 nm and λ=570 nm. The K-ratio of the fluorescence on two wavelengths was determined with a deduction of the background fluorescence of the medium near the investigated cells for 40-60 individual cells, which are then averaged taking into account the measurement error. A thermostatically controlled table was used that allowed measurements to be conducted at a temperature of 37° C. An account was taken for the photodynamic damage of the pigmented cells during-long-time continuous illumination by excited light. The readings were taken from a section of the preparation exposed to light for not more than 5 minutes.
# The calibration curves for determining the absolute pHi values by magnitude K were constructed using the Thomas technique (Thomas J. A., Bushbaum R. N., Zimniak A. w Racker E. “Intracellular pH measurements in Ehrlich ascites tumor cells utilizing spectroscopic probe generated in situ”, Biochemistry, 1979, v. 18, p. 2210-2218), for which case the pigmented cells treated for 5-10 minutes with carboxyacidic nigericyn (Calbiochem) at a concentration of 5-10 mkg/ml was placed in a solution with a high content of potassium—130 mM KCl, 1.0 mM MgCl2, 20.0 mM of HEPES) and with pH values from 6.2 to 7.6. The K values were measured in the media with different pH assuming that pHi of the cells equals to the pH of the medium due to the action of nigericyn, which exchanges potassium ions for protons and at a high content of potassium in the medium counterbalances the pH of the medium and cells. Calibration curves were used based on the fluorescence of same medium with addition of 5.0 mkM of fluorescence or BCECF were used to the control the stability of the of the instrument readings.
# The correctness of the technique was confirmed in the experiments on measurements of pH values of cells treated with protonofor monencine raising pH of the cells due to replacement of sodium ions by protons, and by determining the dependence of the change of pHi on the change of the pH of the medium. […]
# [4] = medium with 10.0% blood serum, 0.02 mkg/ml, suspension
# [5] = medium with 10.0% blood serum, 0.2 mkg/ml, suspension
# [6] = medium with 10.0% blood serum, 2.0 mkg/ml, suspension
# [7] = medium with 10.0% blood serum, 20.0 mkg/ml, suspension
# [8] = medium without blood serum, 0.02 mkg/ml
# [9] = medium without blood serum, 0.2 mkg/ml
# [10] = medium without blood serum, 2.0 mkg/ml
# [11] = medium without blood serum, 20.0 mkg/ml
# [12] = medium without blood serum, 200 mkg/ml
# [13] = medium without blood serum, 1000 mkg/ml
SMILES,"Activity of NOC, Hypothalamus, Control + Compound [1]","Activity of NOC, Mesencephalon, Control + Compound [1]","Activity of NOC, Hypothalamus, Control + Morphine + compound [1]","Activity of NOC, Mesencephalon, Control + Morphine + compound [1]","Nitrites, thymus Supernatant, Administration of compounds (thymus)","Thymus mass, Administration of compounds (thymus)",number of electrons participating in the reduction [2],"i, mkA (polarographic wave current) ([2]; pH 7.0)","−E1/2, V (half-wave potential vs SCE) ([2]; pH 7.0)","i, mkA (polarographic wave current) ([2]; pH 7.2)","−E1/2, V (half-wave potential vs SCE) ([2]; pH 7.2)","i, mkA (polarographic wave current) ([2]; pH 7.4)","−E1/2, V (half-wave potential vs SCE) ([2]; pH 7.4)","i, mkA (polarographic wave current) ([2]; pH 7.6)","−E1/2, V (half-wave potential vs SCE) ([2]; pH 7.6)",half-wave potential more positive on reverse stroke than on forward stroke [2],rise of pHi ([3]; 2.0 mkg/ml),rise of pHi ([3]; 20.0 mkg/ml),"increase of pHi [3, 4]","increase of pHi [3, 5]",further results
"O=c1[nH][nH]c(=O)c2c(Br)ncnc12.[K] [Compound 37, potassium salt of 4-bromine-pyrimido[4,5-D]-6H-pyridazine-5,8-dione]",5.61 ± 0.22 pmol/min/mg of protein,2.62 ± 0.27 pmol/min/mg of protein,5.59 ± 0.22 pmol/min/mg of protein,1.85 ± 0.30 pmol/min/mg of protein,0.410 ± 0.01 nmol/mg of protein,263 ± 21 mg,–,–,–,–,–,–,–,–,–,–,–,–,–,–,–
"O=c1[nH][nH]c(=O)c2nccnc12.[Li] [Compound 25, lithium salt of pyrazine[2,3-d]-6H-pyridazine-5,8-dione]",5.88 ± 0.27 pmol/min/mg of protein,2.65 ± 0.43 pmol/min/mg of protein,5.23 ± 0.27 pmol/min/mg of protein,1.97 ± 0.27 pmol/min/mg of protein,0.417 ± 0.02 nmol/mg of protein,254 ± 14 mg,3.72,0.32 ± 0.03 mkA,0.16 ± 0.02 V,0.33 ± 0.04 mkA,0.19 ± 0.02 V,0.34 ± 0.03 mkA,0.175 ± 0.01 V,0.34 ± 0.02 mkA,0.16 ± 0.015 V,20.0 mV,–,–,–,–,–
"Nc1ncc2c(=O)[nH][nH]c(=O)c2n1 [Compound 36, 2-amino-pyrimido[4,5-d]-6H-pyridazine-5,8-dione]",–,–,–,–,–,–,3.5,0.30 ± 0.05 mkA,0.08 ± 0.02 V,0.26 ± 0.02 mkA,–,0.30 ± 0.03 mkA,0.085 ± 0.02 V,0.30 ± 0.02 mkA,0.09 ± 0.02 V,–,0.10 unit pHi,0.07 unit pHi,do not initiate a change of pH,0.1 unit pH,"increase of pHi [3, 6]: 0.12 unit pH; increase of pHi [3, 7]: do not initiate a change of pH; increase of pHi [3, 8]: no effect was found; increase of pHi [3, 9]: no effect was found; increase of pHi [3, 10]: 0.08 unit pHi; increase of pHi [3, 11]: 0.08 unit pHi; increase of pHi [3, 12]: no effect was found; increase of pHi [3, 13]: no effect was found"
"O=c1[nH]n([C@@H]2O[C@H](CO)[C@@H](O)[C@H]2O)c(=O)c2nc(O)cnc12.[Na].[Na] [Compound 23, disodium salt of 2-hydroxy-7-(β-D-ribofuranosile)pyrazine[2,3-Cl]-6H-pyridazine-5,8-dione]",–,–,–,–,–,–,3.72,0.32 ± 0.03 mkA,0.16 ± 0.02 V,0.33 ± 0.04 mkA,0.19 ± 0.02 V,0.34 ± 0.03 mkA,0.175 ± 0.01 V,0.34 ± 0.02 mkA,0.16 ± 0.015 V,20.0 mV,0.10 unit pHi,0.07 unit pHi,do not initiate a change of pH,0.1 unit pH,"increase of pHi [3, 6]: 0.12 unit pH; increase of pHi [3, 7]: do not initiate a change of pH; increase of pHi [3, 8]: no effect was found; increase of pHi [3, 9]: no effect was found; increase of pHi [3, 10]: 0.08 unit pHi; increase of pHi [3, 11]: 0.08 unit pHi; increase of pHi [3, 12]: no effect was found; increase of pHi [3, 13]: no effect was found"
